Assay results from US9073830B2 (Hyundai Pharm Co., Ltd., priority 2011, dated 2015).

Tests used:
human 11β-HSD1 = target: T1, human 11β-HSD1 (Homo sapiens, UniProt P28845); assay: Enzyme activity analysis on human 11β-HSD1 (HTRF cortisol, liver microsomes); assay type: biochemical; settings: first value of cell
T1 construct: 100 ug/ml human/mouse liver microsomes; from tissue; host or cells: human liver microsomes
Procedure, shortened: (§1)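 Cortisol generated by mouse or human liver microsome 11β-HSD1 during 2 h at 37° C., measured by HTRF competition (cryptate anti-cortisol antibody, d2-cortisol, 2 h room temperature) against a cortisol standard curve. IC50 from percent inhibition versus no-compound control.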

mouse 11β-HSD1 = target: T2, mouse 11β-HSD1 (Mus musculus, UniProt P50172); assay: Enzyme activity analysis on mouse 11β-HSD1 (HTRF cortisol, liver microsomes); assay type: biochemical; settings: second value of cell
T2 construct: 100 ug/ml human/mouse liver microsomes; from tissue; host or cells: mouse liver microsomes
T2 sequence (P50172 whole entry): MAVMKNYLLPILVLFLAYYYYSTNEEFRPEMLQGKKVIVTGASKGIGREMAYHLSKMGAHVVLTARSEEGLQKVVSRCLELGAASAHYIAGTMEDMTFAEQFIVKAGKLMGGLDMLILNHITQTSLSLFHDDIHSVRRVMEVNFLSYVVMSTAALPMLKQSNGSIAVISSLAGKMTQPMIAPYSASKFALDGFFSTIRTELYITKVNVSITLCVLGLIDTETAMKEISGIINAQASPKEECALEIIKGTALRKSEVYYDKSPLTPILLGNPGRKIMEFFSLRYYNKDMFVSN
Procedure, shortened: as §1

T1 sequence (P28845 whole entry): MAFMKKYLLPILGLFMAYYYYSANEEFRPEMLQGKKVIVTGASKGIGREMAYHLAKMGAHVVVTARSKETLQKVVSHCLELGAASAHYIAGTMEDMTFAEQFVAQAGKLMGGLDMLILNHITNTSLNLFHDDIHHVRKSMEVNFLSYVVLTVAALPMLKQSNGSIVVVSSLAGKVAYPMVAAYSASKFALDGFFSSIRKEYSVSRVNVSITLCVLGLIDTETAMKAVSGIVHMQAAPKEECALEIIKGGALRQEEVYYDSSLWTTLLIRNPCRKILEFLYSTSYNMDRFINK

Row | IC50 (human 11β-HSD1) | IC50 (mouse 11β-HSD1) | Compound
1 | 0.005 µM | 0.104 µM | NC(=O)C12CC3CC(C1)C(NC(=O)C1(NS(=O)(=O)c4ccccc4[N+](=O)[O-])CCCCC1)C(C3)C2 (stereo not shown) [compound 184, N-4-(1-(2-nitrophenylsulfonamido)cyclohexanecarboxyamido)adamantane-1-carboxyamide]
2 | 0.028 µM | 0.119 µM | NC(=O)C12CC3CC(C1)C(NC(=O)C1(NS(=O)(=O)c4ccccc4F)CCCCC1)C(C3)C2 (stereo not shown) [compound 185, N-4-(1-(2-fluorophenylsulfonamido)cyclohexanecarboxyamido)adamantane-1-carboxyamide]
3 | 0.012 µM | 0.005 µM | NC(=O)C12CC3CC(C1)C(NC(=O)C1(NS(=O)(=O)c4c(Cl)cccc4Cl)CCCCC1)C(C3)C2 (stereo not shown) [compound 186, N-4-(1-(2,6-dichlorophenylsulfonamido)cyclohexanecarboxyamido)adamantane-1-carboxyamide]
4 | 0.076 µM | > 2.5 µM | Cc1ccc(S(=O)(=O)NC2(C(=O)NC3C4CC5CC3CC(C(N)=O)(C5)C4)CCCCC2)cc1F (stereo not shown) [compound 187, N-4-(1-(3-fluoro-4-methylphenylsulfonamido)cyclohexanecarboxyamido)adamantane-1-carboxyamide]
5 | 0.013 µM | 0.007 µM | CN(C(C)(C)C(=O)NC1C2CC3CC1CC(C(N)=O)(C3)C2)S(=O)(=O)c1cccc2cccnc12 (stereo not shown) [compound 188, N-4-(2-methyl-2-(N-methylquinoline-8-sulfonamido)propanamido)adamantane-1-carboxyamide]
6 | 0.018 µM | > 2.5 µM | CN(C(C)(C)C(=O)NC1C2CC3CC1CC(C(N)=O)(C3)C2)S(=O)(=O)c1ccccc1Br (stereo not shown) [compound 189, N-4-(2-(2-bromo-N-methylphenylsulfonamido)-2-methylpropanamido)adamantane-1-carboxyamide]
7 | 0.002 µM | 0.005 µM | CN(C(C)(C)C(=O)NC1C2CC3CC1CC(C(N)=O)(C3)C2)S(=O)(=O)c1ccccc1Cl (stereo not shown) [compound 190, N-4-(2-(2-chloro-N-methylphenylsulfonamido)-2-methylpropanamido)adamantane-1-carboxyamide]
8 | 0.009 µM | 0.006 µM | Cc1c(Cl)cccc1S(=O)(=O)N(C)C(C)(C)C(=O)NC1C2CC3CC1CC(C(N)=O)(C3)C2 (stereo not shown) [compound 191, N-4-(2-(2-methyl-3-chloro-N-methylphenylsulfonamido)-2-methylpropanamido)adamantane-1-carboxyamide]
9 | 0.008 µM | 0.002 µM | CN(C(C)(C)C(=O)NC1C2CC3CC1CC(C(N)=O)(C3)C2)S(=O)(=O)c1c(Cl)cccc1Cl (stereo not shown) [compound 192, N-4-(2-(2,6-dichloro-N-methylphenylsulfonamido)-2-methylpropanamido)adamantane-1-carboxyamide]
10 | 0.007 µM | 0.012 µM | CN(C(C)(C)C(=O)NC1C2CC3CC1CC(C(N)=O)(C3)C2)S(=O)(=O)c1ccccc1C(F)(F)F (stereo not shown) [compound 193, N-4-(2-(2-trifluoromethyl-N-methylphenylsulfonamido)-2-methylpropanamido)adamantane-1-carboxyamide]
11 | 0.012 µM | 0.006 µM | COc1cccc(F)c1S(=O)(=O)N(C)C(C)(C)C(=O)NC1C2CC3CC1CC(C(N)=O)(C3)C2 (stereo not shown) [compound 194, N-4-(2-(2-methoxy-6-fluoro-N-methylphenylsulfonamido)-2-methylpropanamido)adamantane-1-carboxyamide]
12 | 0.003 µM | 0.005 µM | Cc1ccccc1S(=O)(=O)N(C)C(C)(C)C(=O)NC1C2CC3CC1CC(C(N)=O)(C3)C2 (stereo not shown) [compound 196]
13 | 0.004 µM | 0.008 µM | CN(C(C)(C)C(=O)NC1C2CC3CC1CC(C(N)=O)(C3)C2)S(=O)(=O)c1ccccc1[N+](=O)[O-] (stereo not shown) [compound 197, N-4-(2-(2-nitro-N-methylphenylsulfonamido)-2-methylpropanamido)adamantane-1-carboxyamide]
14 | 0.008 µM | 0.003 µM | CN(C(C)(C)C(=O)NC1C2CC3CC1CC(C(N)=O)(C3)C2)S(=O)(=O)c1cccc(Cl)c1Cl (stereo not shown) [compound 198]
15 | 0.004 µM | 0.016 µM | CN(C1(C(=O)NC2C3CC4CC2CC(C(N)=O)(C4)C3)CCC1)S(=O)(=O)c1ccccc1[N+](=O)[O-] (stereo not shown) [compound 199, N-4-(1-(N-methyl-2-nitrophenylsulfonamido)cyclobutanecarboxyamido)adamantane-1-carboxyamide]
16 | 0.023 µM | 0.143 µM | Cc1c(Cl)cccc1S(=O)(=O)N(C)C(C)(C)C(=O)NC1C2CC3CC(C2)CC1C3 (stereo not shown) [compound 200, N-(adamantane-2-yl)-2-(3-chloro-2-methyl-N-methylphenylsulfonamido)-2-methylpropanamide]
17 | 0.012 µM | 0.088 µM | CN(C(C)(C)C(=O)NC1C2CC3CC(C2)CC1C3)S(=O)(=O)c1ccccc1C(F)(F)F (stereo not shown) [compound 201, N-(adamantane-2-yl)-2-(2-trifluoromethyl-N-methylphenylsulfonamido)-2-methylpropan amide]
18 | 0.011 µM | 0.208 µM | CN(C(C)(C)C(=O)NC1C2CC3CC1CC(O)(C3)C2)S(=O)(=O)c1ccccc1F (stereo not shown) [compound 202, N-(5-hydroxyadamantane-2-yl)-2-(2-fluoro-N-methylphenylsulfonamido)-2-methylpropanamide]

Row | IC50 (human 11β-HSD1) | IC50 (mouse 11β-HSD1) | Compound
19 | 0.01 µM | 0.039 µM | CN(C(C)(C)C(=O)NC1C2CC3CC1CC(O)(C3)C2)S(=O)(=O)c1cccc(Cl)c1Cl (stereo not shown) [compound 203, N-(5-hydroxyadamantane-2-yl)-2-(2,3-dichloro-N-methylphenylsulfonamido)-2-methylpropanamide]
20 | 0.004 µM | 0.042 µM | Cc1c(Cl)cccc1S(=O)(=O)N(C)C(C)(C)C(=O)NC1C2CC3CC1CC(O)(C3)C2 (stereo not shown) [compound 204, N-(5-hydroxyadamantane-2-yl)-2-(2-methyl-3-chloro-N-methylphenylsulfonamido)-2-methylpropanamide]
21 | 0.005 µM | 0.068 µM | CN(C(C)(C)C(=O)NC1C2CC3CC1CC(O)(C3)C2)S(=O)(=O)c1ccccc1[N+](=O)[O-] (stereo not shown) [compound 205, N-(5-hydroxyadamantane-2-yl)-2-(2-nitro-N-methylphenylsulfonamido)-2-methylpropan amide]
22 | 0.005 µM | 0.041 µM | CN(C(C)(C)C(=O)NC1C2CC3CC1CC(O)(C3)C2)S(=O)(=O)c1ccccc1Br (stereo not shown) [compound 206, N-(5-hydroxyadamantane-2-yl)-2-(2-bromo-N-methylphenylsulfonamido)-2-methylpropanamide]
23 | 0.006 µM | 0.107 µM | Cc1ccccc1S(=O)(=O)N(C)C(C)(C)C(=O)NC1C2CC3CC1CC(O)(C3)C2 (stereo not shown) [compound 207, N-(5-hydroxyadamantane-2-yl)-2-(2-methyl-N-methylphenylsulfonamido)-2-methylpropanamide]
24 | 0.006 µM | 0.092 µM | CN(C(C)(C)C(=O)NC1C2CC3CC1CC(O)(C3)C2)S(=O)(=O)c1ccccc1C(F)(F)F (stereo not shown) [compound 208, N-(5-hydroxyadamantane-2-yl)-2-(2-trifluoromethyl-N-methylphenylsulfonamido)-2-methylpropanamide]
25 | 0.008 µM | 0.182 µM | CCN(C(C)(C)C(=O)NC1C2CC3CC1CC(C(N)=O)(C3)C2)S(=O)(=O)c1ccccc1C (stereo not shown) [compound 209, N-4-(2-(2-methyl-N-ethylphenylsulfonamido)-2-methylpropanamido)adamantane-1-carboxyamide]
26 | 0.006 µM | 1.44 µM | CCN(C(C)(C)C(=O)NC1C2CC3CC1CC(C(N)=O)(C3)C2)S(=O)(=O)c1ccccc1C(F)(F)F (stereo not shown) [compound 210, N-4-(2-(2-trifluoromethyl-N-ethylphenylsulfonamido)-2-methylpropanamido)adamantane-1-carboxyamide]
27 | 0.006 µM | 0.079 µM | CCN(C(C)(C)C(=O)NC1C2CC3CC1CC(C(N)=O)(C3)C2)S(=O)(=O)c1ccccc1F (stereo not shown) [compound 211, N-4-(2-(2-fluoro-N-ethylphenylsulfonamido)-2-methylpropanamido)adamantane-1-carboxyamide]
28 | 0.024 µM | 0.191 µM | CCN(C(C)(C)C(=O)NC1C2CC3CC1CC(C(N)=O)(C3)C2)S(=O)(=O)c1cccc(Cl)c1Cl (stereo not shown) [compound 212]
29 | 0.005 µM | 0.235 µM | CCN(C(C)(C)C(=O)NC1C2CC3CC1CC(C(N)=O)(C3)C2)S(=O)(=O)c1c(F)cccc1F (stereo not shown) [compound 213, N-4-(2-(2,6-difluoro-N-ethylphenylsulfonamido)-2-methylpropanamido)adamantane-1-carboxyamide]
30 | 0.004 µM | 0.284 µM | CCN(C(C)(C)C(=O)NC1C2CC3CC1CC(C(N)=O)(C3)C2)S(=O)(=O)c1cccc(Cl)c1C (stereo not shown) [compound 215]
31 | 0.009 µM | 0.974 µM | CCN(C(C)(C)C(=O)NC1C2CC3CC1CC(C(N)=O)(C3)C2)S(=O)(=O)c1ccccc1[N+](=O)[O-] (stereo not shown) [compound 216]
32 | 0.004 µM | 0.098 µM | CCN(C(C)(C)C(=O)NC1C2CC3CC1CC(C(N)=O)(C3)C2)S(=O)(=O)c1ccccc1Cl (stereo not shown) [compound 217]
33 | 0.053 µM | 0.462 µM | CCCN(C(C)(C)C(=O)NC1C2CC3CC1CC(C(N)=O)(C3)C2)S(=O)(=O)c1ccccc1C(F)(F)F (stereo not shown) [compound 218, N-4-(2-(2-trifluoromethyl-N-propylphenylsulfonamido)-2-methylpropanamido)adamantane-1-carboxyamide]
34 | 0.085 µM | 0.117 µM | CC(C)(NS(=O)(=O)c1ccccc1N)C(=O)NC1C2CC3CC1CC(C(N)=O)(C3)C2 (stereo not shown) [compound 219, N-4-(2-(2-aminophenylsulfonamido)-2-methylpropanamido)adamantane-1-carboxyamide]
35 | 0.032 µM | 0.266 µM | NC(=O)C12CC3CC(C1)C(NC(=O)C1(NS(=O)(=O)c4ccccc4N)CCCCC1)C(C3)C2 (stereo not shown) [compound 220, N-4-(1-(2-aminophenylsulfonamido)cyclohexanecarboxyamido)adamantane-1-carboxyamide]
